Consider one compound from patent US20220152065A1, “METHOD OF BLOCKING OR AMELIORATING CYTOKINE RELEASE SYNDROME” (Rigel Pharmaceuticals, Inc., priority 2019, published 2022).

In assay [1] the test system is Dendritic cells + T cells + CD3/CD28 beads (IL-6 production). Nature of the assay: CRS assay: IL6 ELISA of supernatant from dendritic cells + T cells + CD3/CD28 beads. Particulars: human PBMC-derived dendritic cells, 1 h compound pre-incubation, T cells with CD3/CD28 beads overnight; IL-6 in supernatant. Type of assay: cell-based. (In general: In an ELISA, binding on a coated surface is turned into a signal by an enzyme label.)
Description: Transfer human PBMC cells (400 million) obtained from the vendor into three T-175 flasks containing 16 ml RPMI media (10% FBS) and incubate for 2 h at 37° C. After 2 h, remove floating PBL and rinse cell twice with 10 ml of media. Save PBL and media for T cell expansion. Add 16 ml of fresh RPMI media (10% FBS) containing GMCSF (100 ng/ml) and IL4 (20 ng/ml) and keep the flask in 37° C. incubator. […]
After 4 days, harvest the dendritic cells by spinning down (1000 rpm/10 min) and aspirate the media. […] To the remaining 40 μl/well of the cell culture plate add 25 μl of Cell Titer Glo reagent, incubate for 1-2 minutes on a shaker and read the plate for luminescence intensity to determine the compound cytotoxicity. […]

The subject of assay [2] is Dendritic cells + T cells + CD3/CD28 beads (IL-2 production). Nature of the assay: CRS assay: IL2 ELISA of supernatant from dendritic cells + T cells + CD3/CD28 beads. Type of assay: cell-based. The settings on record: human PBMC-derived dendritic cells, 1 h compound pre-incubation, T cells with CD3/CD28 beads overnight; IL-2 in supernatant. From the text: • 1. Human PBMC cells (PPA Research Group, Cat No. 15-00021) • 2. RPMI media 10% FBS • 3. GMCSF (Peprotech, Cat No. 300-03) and IL4 (Peprotech Cat No. 200-04) • 4. White clear bottom 96 well plates (Fisher, Cat No. 07-200-587, Corning #3903) • 5. Human IL-2 DuoSet ELISA (R&D Systems, Cat No. DY202) • 6. Human IL-6 DuoSet ELISA (R&D Systems, Cat No. DY206) • 7. Cell Titer Glo reagent (Promega, Cat No. G7573) • 8. Dynabeads Human T-Activator CD3/CD28 (Fisher, Cat No. 111.61D) • 9. Anti-human CD3 (BD Biosciences, Cat No. 555336) • 10. CD28, Clone CD28.2 (Beckman Coulter Inc. Cat No. IM1376) • 11. Recombinant Human IL-2 Protein (R&D Systems, Cat No. 202-IL-500)
Transfer human PBMC cells (400 million) obtained from the vendor into three T-175 flasks containing 16 ml RPMI media (10% FBS) and incubate for 2 h at 37° C. After 2 h, remove floating PBL and rinse cell twice with 10 ml of media. Save PBL and media for T cell expansion. Add 16 ml of fresh RPMI media (10% FBS) containing GMCSF (100 ng/ml) and IL4 (20 ng/ml) and keep the flask in 37° C. incubator. After 3 days, add fresh GMCSF (100 ng/ml) and IL4 (20 ng/ml) to the flask and continue the incubation.
• 1. […]
• 1. […] To the remaining 40 μl/well of the cell culture plate add 25 μl of Cell Titer Glo reagent, incubate for 1-2 minutes on a shaker and read the plate for luminescence intensity to determine the compound cytotoxicity. […]

Assay [3] has as its target Fc receptor signaling (degranulation). Particulars: IgE- and IgG-mediated Fc receptor activation; cited from earlier work.

The term IC50 denotes the concentration that inhibits the measured activity by half. As a reminder, the EC50 is the midpoint of the concentration-response curve. Take `COc1cc(Nc2ncc(F)c(Nc3ccc4c(n3)NC(=O)C(C)(C)O4)n2)cc(OC)c1OC` [Compound R406, 6-((5-fluoro-2-((3,4,5-trimethoxyphenyl)amino)pyrimidin-4-yl)amino)-2,2-dimethyl-2H-pyrido[3,2-b][1,4]oxazin-3(4H)-one]: the IC50 in assay [1] came out at 0.119 µM; in assay [2] it was 3.14 µM. Besides, in assay [3], the EC50 is 56 to 64 nM.
